This is an account of results in patent US10450271B2 (priority 2014, dated 2019).

One experiment concerns Fusarium graminearum. The class given is cell-based. The conditions noted are these: ethanol as solvent; 500 uL medium lyophilized; HPLC can detect down to ng/sample.
For another experiment, the system named is Aspergillus parasiticus. It is filed as cell-based.

As to `COc1cc(/C=C/C(=O)N2CCCCC2)ccc1O` [Compound 1], in the experiment with Fusarium graminearum, the “DON detection by HPLC analysis” value is “some DON was detected”.

For the molecule `COc1cc(/C=C/C(=O)N2CCCC2)ccc1O` [Compound 2], the “DON detection by HPLC analysis” value with Fusarium graminearum is “some DON was detected”.

Take `COc1cc(/C=C/C(=O)N2CCCCC2=O)ccc1O` [Compound 3, (E)-1-(3-(4-hydroxy-3-methyoxyphenyl)acryloyl)piperidin-2-one]: in the experiment with Aspergillus parasiticus (25 ppm, liquid culture, TLC analysis), the “reduction of aflatoxin levels” value was “up to 80%”. For the same molecule, the “lowest effective concentration for reducing aflatoxin levels” value in the experiment on Aspergillus parasiticus (liquid culture, TLC analysis) is listed as 25 ppm. In addition, the “DON detection by HPLC analysis” value with Fusarium graminearum is given as “not detected”.

`CCC=CCC=CCC=CCCCCCCCC(=O)N1CCCCC1` [Compound 7]: the “effect on aflatoxin accumulation in culture (in words)” value in the experiment on Aspergillus parasiticus is “reduced aflatoxin accumulation in culture, but the effect was inconsistent from one trial to the next”. Further, the “DON detection by HPLC analysis” value with Fusarium graminearum was “not detected”.
